# Data: US20250154467A1, “CREATION OF VASCULARIZED BIOLOGICAL STRUCTURES” (The Board of Trustees of the Leland Stanford Junior …, priority 2022, published 2025)
# Entries after “also recorded” stand apart in the source; their conditions may differ. Like-named read-outs stand apart in the source and are kept apart here.
# Key:
# hESC-3R colony = assay: 3D cVO creation in 96-well plate with a range of CHIR; type: cell-based, human; settings: 3D cVOs, day 14, CHIR 6.0-8.5 uM
# Procedure: For 3D cVO creation, two methods were used. In the first method, stencils with single 2 mm center holes were placed in 24-well plates with Softwell Easy Coat hydrogels with a custom stiffness of 16 […]) and hESC-3R cells were micropatterned as described above. In the second method, to increase throughput and eliminate using stencils, each well of a black 96-well plate ([…]-32EA, Sigma-Aldrich) was freshly coated with a central, 2 uL drop of Matrigel (1:400 dilution) and was then seeded with 125,000 hESC-3R cells. Cells were allowed to attach and grow for 2-4 days forming a single, homogenous, round colony in the center of each well. The same differentiation protocol for 2D cVOs was then used to create 3D cVOs from days 0-14, using a range of CHIR from 6.0-8.5 μM.
# hESC-3R micropatterns [1] = assay: cVO differentiation screening, 34 conditions, CM/EC/SMC total fluorescence area; type: cell-based, human
# Source text: Cardiac Vascularized Organoid (cVO) Differentiation. See FIG. 3C, FIG. 10H-I, and Table 1 for an overview of our thirty-four (34) cardiovascular (CV) differentiation screening conditions to produce cVOs. The Control groups utilized only CHIR, FGF2, and IWR. To begin, hPSCs suspended in single cells were transferred to Matrigel-coated non-micropatterned or micropatterned surfaces as described above and differentiated in RPMI-1640 media (61870, Thermo Fisher Scientific) supplemented with B27 without insulin (A1895601, Thermo Fisher Scientific) (RB-I). The CV differentiation was based on the baseline differentiation described previously to promote CM differentiation and contained several additional small molecules and growth factors to promote simultaneous endothelial and smooth muscle cell co-differentiation. On Day 0, for primarily mesoderm induction, basal medium was supplemented with 4 or 5 μM CHIR99021 (CHIR) (S2924, Selleck Chemicals) and 5 ng/ml FGF-2 (FGF2) (100-18B, PeproTech). On Day 3, for CM induction, 5 uM IWR-1 (IWR) (S7086, Selleck Chemicals) was added. On Days 5-16, to simultaneously induce endothelial cell vasculogenesis and angiogenesis along with the cardiomyocyte differentiation, we added combinations of 50 ng/ml VEGF-165 (VEGF) (Days 5, 7, 9, 11, 13) (100-20, PeproTech); 5 ng/ml FGF-2 (FGF2) (Days 7, 9, 11, 13) (100-18B, PeproTech); 10 uM SB431542 (SB) (Days 7, 9, or 11) ([…], Selleck Chemicals); 50 ng/ml Angiopoietin-2 (ANG2) (Days 5 and 7) (130-07, PeproTech); 50 ng/ml Angiopoietin-1 (ANG1) (Days 9 and 11) (130-06, PeproTech); and select components of the VascuLife® VEGF LifeFactors® Kit (Aghajanian et al., 2016) (LS-1020, Lifeline Cell Technology) (Days 5, 7, 9, 11, and 13) (5 ng/ml EGF, 15 ng/ml IGF-1, 50 μg/mL ascorbic acid, 0.75 U/mL heparin sulfate, […]). On Days 7-16, to simultaneously induce smooth muscle cell differentiation with cardiomyocyte and endothelial cell differentiation, we added 2.5 or 10 ng/ml PDGF-BB (PDGFBB) (Days 7, 9, 11, 13) (100-14B, PeproTech) and 0.5 or 2 ng/ml TGF-β1 (TGFβ) (Days 7, 9, 11, 13) (100-21C, PeproTech). To increase throughput, screening time-lapse microscopy was performed with the Cytation 5 Cell Imaging Multi-Mode Reader (BioTek). Five (5) forty-eight (48)-well plates (204 out of 240 wells) were imaged over the differentiation time-period. The plates contained a single 2 mm circular micropattern of undifferentiated hESC-3R cells in the center of each well subjected to thirty-four (34) differentiation conditions, with nominally 4-6 replicates per condition, imaged at six (6) timepoints (Days 3, 5, 8, 10, 12, and 16 (D3-D16)). After all raw images were acquired, image analysis was performed with Gen5 v3.05 software (BioTek). Images in each channel and each 4×4 array were stitched to create a single mosaic image; 4728 mosaics were created, and each mosaic image was downsized by 25%. Next, image processing of each mosaic was performed to reduce background independently in each channel. Finally, for each channel, thresholding was performed on fluorescence intensity along with minimum and maximum object size to calculate the total Phase, CFP, GFP, and mOrange total fluorescence area in each well for each condition at each timepoint. Each mosaic image was computationally masked by a circular “plug” to eliminate fluorescence artifact created by well edges. For each condition, values for replicate samples were summed, and the mean and standard deviation were calculated.
# RUES-GLR hESCs = assay: Germ layer formation under different CHIR concentrations; type: cell-based, human; settings: CHIR 4 uM added at day 0, day 6
# hESC-3R micropatterns [2] = assay: CHIR concentrations and VEGF addition on CM and EC co-differentiation over 14 days; type: cell-based, human; settings: day 14
# cVO EC formation = settings: for time course of detrimental effect on EC formation (regression coefficients): multiple linear regression fit, 16 days; for effect on vascularization of cVOs: pathway inhibitors, summary; for EC location within cVO: day 16
# cVOs = assay: Beat rate with isoproterenol treatment, cVOs; type: cell-based, human; settings: isoproterenol 0, 1, and 10 uM; n=16
# Source text: Cardiac Vascularized Organoid (cVO) Differentiation. See FIG. 3C, FIG. 10H-I, and Table 1 for an overview of our thirty-four (34) cardiovascular (CV) differentiation screening conditions to produce cVOs. The Control groups utilized only CHIR, FGF2, and IWR. To begin, hPSCs suspended in single cells were transferred to Matrigel-coated non-micropatterned or micropatterned surfaces as described above and differentiated in RPMI-1640 media (61870, Thermo Fisher Scientific) supplemented with B27 without insulin (A1895601, Thermo Fisher Scientific) (RB-I). The CV differentiation was based on the baseline differentiation described previously to promote CM differentiation and contained several additional small molecules and growth factors to promote simultaneous endothelial and smooth muscle cell co-differentiation. […] We assessed the contractility of Control and cVO groups in a similar manner as we have previously described. Contraction of beating CMs within the micropatterns was recorded with high-resolution motion capture tracking (75 fps) using the SI8000 Live Cell Motion Imaging System (Sony Corporation). […] Functional parameters were assessed from the averaged contraction-relaxation waveforms from 10 sec recordings, using the S[…] […] The software was used to detect motion vectors and quantify beating rate, contraction velocity, relaxation velocity, and contraction-relaxation peak interval of cVOs.
# [3] = test system: Controls (baseline cardiomyocyte differentiation); assay: Beat rate with isoproterenol treatment, Controls; type: cell-based, human; settings: isoproterenol 0, 1, and 10 uM; n=15
# Source text: Baseline Cardiomyocyte (CM) Differentiation. For baseline cardiomyocyte (CM) differentiation (Control group), hPSCs were transferred to Matrigel-coated non-micropatterned and micropatterned surfaces as described above and differentiated in RPMI-1640 media (61870, Thermo Fisher Scientific) supplemented with B27 without insulin (A1895601, Gibco/Thermo Fisher Scientific). Our baseline differentiation method was based on a small molecule-based monolayer method (Lian et al., 2012; Burridge et al., 2014). Briefly, on the first day (Day 0) of differentiation, basal medium was supplemented with 4, 5, or 6 μM CHIR99021 (CHIR) (S2924, Selleck Chemicals) and 5 ng/mL FGF-2 (FGF2) (100-18B, PeproTech). On Day 2, the medium was replaced with basal medium containing B27 without insulin. […] We assessed the contractility of Control and cVO groups in a similar manner as we have previously described. Contraction of beating CMs within the micropatterns was recorded with high-resolution motion capture tracking (75 fps) using the SI8000 Live Cell Motion Imaging System (Sony Corporation). […] Functional parameters were assessed from the averaged contraction-relaxation waveforms from 10 sec recordings, using the S[…] […] The software was used to detect motion vectors and quantify beating rate, contraction velocity, relaxation velocity, and contraction-relaxation peak interval of cVOs.
# [4] = CHIR 4 vs 5 uM for each condition, day 12
compound,measurement,setting,value
"Cc1cnc(-c2cnc(NCCNc3ccc(C#N)cn3)nc2-c2ccc(Cl)cc2Cl)[nH]1 [CHIR, 6-[[2-[[4-(2,4-Dichlorophenyl)-5-(5-methyl-1H-imidazol-2-yl)-2-pyrimidinyl]amino]ethyl]amino]-3-pyridinecarbonitrile]",CHIR concentration giving the most CMs and ECs,hESC-3R colony,7.0 µM
same,"CHIR concentration giving the most CMs, ECs, and SMCs","hESC-3R micropatterns [1]; 34 screening conditions, CHIR 4 uM vs 5 uM",5 µM
same,CHIR concentration giving the most CMs (GFP total fluorescence area),hESC-3R micropatterns [1]; [4],5 µM
same,CHIR concentration giving the most ECs (mOr total fluorescence area),hESC-3R micropatterns [1]; [4],5 µM
same,CHIR concentration giving the most SMCs (CFP total fluorescence area),hESC-3R micropatterns [1]; [4],5 µM
same,germ layer formation in micropatterned RUES-GLR hESCs,RUES-GLR hESCs,"central BRA+ mesodermal area was surrounded by a SOX17+ endodermal ring and no SOX2 ectodermal expression; also recorded: BRA+ mesodermal central area surrounded by a SOX17+ endodermal ring, with no SOX2 ectodermal expression"
same,CHIR concentration giving the most CMs,"hESC-3R micropatterns [2]; CHIR+FGF2+IWR (Control), CHIR 3, 4, and 5 uM",5 µM
same,CHIR concentration giving the most CMs and ECs,hESC-3R micropatterns [2]; CHIR+FGF2+IWR+VEGF 50 ng/ml,5 µM
C[C@H](NC(=O)Cc1cc(F)cc(F)c1)C(=O)N[C@H](C(=O)OC(C)(C)C)c1ccccc1 [DAPT],difference in cVO EC formation between concentrations,cVO EC formation; DAPT 1 vs 10 uM,no significant (ns) difference
same,time course of detrimental effect on EC formation (regression coefficients),cVO EC formation,decays over time
same,effect on vascularization of cVOs,cVO EC formation,general disruptive effects on vascularization
"Cl.Cl.c1cc(-c2cnn3cc(-c4ccc(OCCN5CCCCC5)cc4)cnc23)ccn1 [Dorsomorphin, 6-[4-[2-(1-Piperidinyl)ethoxy]phenyl]-3-(4-pyridinyl)-pyrazolo[1,5-a]pyrimidine dihydrochloride]",difference in cVO EC formation between concentrations,cVO EC formation; Dorsomorphin 0.1 vs 1.0 uM,no significant (ns) difference
same,time course of detrimental effect on EC formation (regression coefficients),cVO EC formation,exponentially increases
same,effect on vascularization of cVOs,cVO EC formation,general disruptive effects on vascularization
CC(C)NCC(O)c1ccc(O)c(O)c1 (stereo not shown) [isoproterenol],Beat rate of cVOs,cVOs,significantly increased; also recorded: increases
same,Beat rate of Controls,[3],significantly increased; also recorded: increases
Angiostatin,EC location within cVO,cVO EC formation; Angiostatin 0.1 ug/mL,ECs congregated in the center area of starting micropatterns
same,EC location within cVO,cVO EC formation; Angiostatin 1.0 ug/mL,ECs congregated at the periphery of starting micropatterns
same,difference in cVO EC formation between concentrations,cVO EC formation; Angiostatin 0.1 vs 1.0 ug/mL,no significant (ns) difference
same,effect on vascularization of cVOs,cVO EC formation,general disruptive effects on vascularization
VEGF,"EC formation (mOr) compared to Control, FGF2 alone and SB alone","hESC-3R micropatterns [1]; VEGF alone, 50 ng/ml, day 12",most ECs
same,effect on CM formation (GFP),"hESC-3R micropatterns [1]; VEGF alone, 50 ng/ml, day 12",no statistical (ns) effect
